Experimental data reported in PMC12087874, “Biaryl Phosphates and Phosphonates as Selective Inhibitors of the Transcription Factor STAT4” (Angewandte Chemie (International Ed. in English), 2025).
Positions count from the first letter of the chain named. Entries after “also recorded” stand apart in the source; their conditions may differ.

How the values were obtained:
[1] = target: T1, STAT4 Lys580Ala (Homo sapiens, UniProt Q14765, K580A); assay: Isothermal titration calorimetry (ITC), STAT4 Lys580Ala; assay type: binding; conditions: n = 4
T1 construct: 6xHis; made in house
T1 sequence (Q14765 1-748 K580A): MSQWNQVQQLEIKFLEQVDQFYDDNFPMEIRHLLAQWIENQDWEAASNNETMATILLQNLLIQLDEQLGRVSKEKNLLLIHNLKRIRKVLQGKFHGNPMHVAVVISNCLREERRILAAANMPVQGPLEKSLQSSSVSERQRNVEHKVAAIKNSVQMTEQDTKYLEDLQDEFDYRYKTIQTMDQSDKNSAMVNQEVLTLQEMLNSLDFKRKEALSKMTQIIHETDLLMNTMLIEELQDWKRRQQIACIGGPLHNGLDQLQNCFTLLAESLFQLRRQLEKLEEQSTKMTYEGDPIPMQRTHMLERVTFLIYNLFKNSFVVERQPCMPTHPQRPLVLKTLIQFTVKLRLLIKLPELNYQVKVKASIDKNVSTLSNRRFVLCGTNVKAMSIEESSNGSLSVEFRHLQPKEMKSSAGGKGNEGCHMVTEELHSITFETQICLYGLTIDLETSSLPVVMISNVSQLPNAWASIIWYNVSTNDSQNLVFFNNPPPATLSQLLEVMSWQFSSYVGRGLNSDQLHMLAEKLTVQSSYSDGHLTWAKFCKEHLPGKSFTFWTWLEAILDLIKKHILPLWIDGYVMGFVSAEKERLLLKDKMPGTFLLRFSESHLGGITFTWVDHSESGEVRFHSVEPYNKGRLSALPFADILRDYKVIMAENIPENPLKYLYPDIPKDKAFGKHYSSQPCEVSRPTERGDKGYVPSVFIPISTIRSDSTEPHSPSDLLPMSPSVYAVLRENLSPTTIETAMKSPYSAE
Procedure: Isothermal Titration Calorimetry
Purification of 6xHis-tagged proteins for ITC experiments was carried out by affinity chromatography on His-Bind resin. The eluting fractions were analyzed by SDS -PAGE.
Proteins were dialyzed against ITC buffer (10 mM Tris pH 8.0, 50 mM NaCl) using dialysi s tubing with a 50 kDa cut-off. ITC experiments were performed using a VP-ITC Micro Calorimeter (MicroCal). 6m was dissolved as a 100 mM stock in DMSO and diluted 1/1000 in ITC buffer (Tris pH 8.0 and 50 mM NaCl), resulting in a final concentration of 100 µM. 8k was dissolved as a 5 mM stock in ITC buffer and diluted 1/25 in ITC buffer with DMSO, resulting in a final concentration of 200 µM 8k. DMSO was added to a final concentration of 2% (v/v). To avoid errors caused by the detection of dilution heat, 0.1 % (v/v) DMSO for 6m or 2% (v/v) DMSO for 8k experiments was added to the buffers containing the proteins and to the reference buffer. Proteins were degassed before the experiments using a ThermoVac sample degassing station. The following conditions were used for ITC experiments: 10 µM STAT4 protein for 6m or 20 µM STAT4 protein for 8k experiments, 100 µM 6m or 200 µM 8k, 28 injections with 10 µL single injection volume, 250 s initial delay, 500 s spacing between injections, 250 µcal/s reference power, 300 rpm stirring at 25 °C for 6m or 220 rpm stirring at 25 °C for 8k. […]

[2] = target: T2, STAT4 (Homo sapiens, UniProt Q14765); assay: IL-12-induced STAT4 Tyr693 phosphorylation in NK-92 cells (Western blot); assay type: cell-based; set-up: utilizing cellular lysates from the STAT4‐expressing natural killer cell line NK‐92; endogenous in cells; host or cells: NK-92 (DSMZ); conditions: treatment for 2 h (Figure S4)
T2 sequence (Q14765 1-748): T1 sequence (Q14765 1-748 K580A) with A580K
Procedure: NK-92 cells (DSMZ) were cultured in α-MEM containing 12.5% fetal bovine serum (FBS), 12.5% horse serum, 2 mM L-glutamine, penicillin/streptomycin and 50 U/ml IL -2. […]
The components of cell lysates from treated cells, or heat-treated lysates from CETSA, were separated by SDS-PAGE (10%), transferred to nitrocellulose membrane (Bio-Rad) and detected using monoclonal rabbit primary antibodies (Cell Signaling), α-rabbit-HRP secondary antibody (Dako) and Western Lightning Plus chemiluminescence reagent (Perkin Elmer).
Bands were visualized using an ImageQuant system (GE Healthcare) and quantitated using ImageJ software (NIH). […]
The sitting drop was composed of 0.1 µl protein solution and 0.1 µl reservoir solution. Plates were stored at 19°C in a protein […]
In the first set of experiments, w e tried to crystallize STAT4 as a SUMO -STAT4 fusion protein […]
was cleaved off as described above.
Screening for crystallization conditions for tag-free STAT4 was performed both in the absence or presence of 1 equivalent of 6m or 6h. Since the chosen protein concentration of 3.6 mg/ml appeared to be too low, screening was repeated with a higher concentration of 6.4 mg/ml STAT4 for all conditions (corresponding to 100 µM 6m). Both the SUMO-STAT4 and the tag-free STAT4 preferentially precipitated under conditions containing polyethylene glycol. In one set of experiments, we also screened for conditions in the presence of the high-affinity peptide GY(PO3H2)LPQNID adapted from the IL-12 receptor. However, none of the conditions resulted in the growth of STAT4 crystals (Table S4).

SMILES	binding to STAT4 point mutant Lys580Ala (ITC) [1]	inhibition of IL‐12‐induced STAT4 Tyr693 phosphorylation [2]
O=P(O)(O)Oc1ccc(-c2ccc3ccccc3c2)cc1F [Compound 6m]	too weak for reliable quantification	
Cc1cc(-c2ccc(C(F)(F)P(=O)(O)O)c(F)c2)cs1 [Compound 8k]		unable to inhibit; also recorded: does not inhibit
